Reference: patent publication US20230330254A1 (Regeneron Pharmaceuticals, Inc., priority 2022, published 2023)
Where a SMILES comes first, the peptide text is derived from it. [ ]: non-standard residue; d: D form. The star is where a group is joined. Bip(2'-Et,4'-O(CH2)4NH2) = CCc1cc(OCCCCN)ccc1-c1ccc(C[C@H](N)C(=O)O)cc1; Malonyl(2,2-Me2,histaminyl) = CC(C)(C(=O)NCCc1cnc[nH]1)C(=O)*; Nva(5-(3,5-Me2Ph)) = Cc1cc(C)cc(CCC[C@H](N)C(=O)O)c1; Ala(1H-tetrazol-5-yl) = N[C@@H](Cc1nnn[nH]1)C(=O)O; αMePhe(2-F) = C[C@](N)(Cc1ccccc1F)C(=O)O

Key:
HEK293/CRE-Luc cells [1] = assay: Luciferase reporter assay, HEK293/CRE-Luc cells without GLP1R (Example 17); assay type: cell-based, human
Outline: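 HEK293 cells carrying a CRE-driven firefly luciferase reporter were exposed to 3-fold serial dilutions of payloads or linker-payloads (12 points, 0.2% DMSO final) for 4–6 h, then luminescence was read. EC50 came from a four-parameter logistic fit; S/N is top RLU over untreated wells, and relative potency and S/N are referenced to M2361.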

HEK293/CRE-Luc cells [2] = assay: Luciferase reporter assay, HEK293/CRE-Luc cells without hGLP1R (Example 11); assay type: cell-based, human; conditions: Table 11; Experiment A; no hGLP1R expression
Outline: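 Counter-screen in HEK293 cells carrying CRE-driven firefly luciferase without hGLP1R; 3-fold serial dilutions of payloads or linker-payloads at 0.2% final DMSO, 4–6 h.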

human GLP1R [3] = target: T1, human GLP1R (Homo sapiens, UniProt P43220); assay: CRE-luciferase reporter assay, HEK293/Myc-hGLP1R/Cre-Luc (Example 9); assay type: cell-based; design: engineered to express full-length human GLP1R, cynomolgus GLP1R; expressed in transfected cells; host or cells: HEK293/CRE-Luc
Procedure: To test the activity of GLP1R agonist payloads and GLP1R agonist linker-payloads (LPs) in vitro, a cell-based cAMP responsive luciferase reporter assay was developed.
Cells were incubated overnight at 37° C. in 5% CO2. […] Plates were incubated for 5.5 h at 37° C. in 5% CO2. For end-point measurement, 100 μL/well of One-Glo reagent (Promega, #E6051) was added and plates were kept at room temperature for 5-10 minutes. Luciferase activity was measured on Envision Multilabel Plate Reader (Perkin Elmer) in Luminescent mode. The relative light units (RLU) values were obtained and the results were analyzed using nonlinear regression with GraphPad Prism software (GraphPad).

human GLP1R [4] = target: T1, human GLP1R; assay: Human GLP1R cAMP accumulation assay; assay type: cell-based; design: HEK293 cells over-expressing full length human GLP-1R were utilized; expressed in transfected cells; host or cells: HEK293 (HEK293/hGLP1R)
Outline: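 cAMP accumulation measured after 30 min at 23° C, with 500 μM IBMX in HEPES-buffered HBSS plus 0.1% BSA, in HEK293 cells expressing full-length hGLP-1R. Levels read by D2-cAMP/antibody immunoassay via standard curve, scaled between low and high controls. EC50 fitted four-parameter over a 10-point curve.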

[5] = HEK293/CRE-Luc cells without hGLP1R, payloads and linker-payloads
[6] = HEK293/CRE-Luc cells without hGLP1R, payloads and linker-payloads, read-out: EC50
[7] = HEK293/hGLP1R cells, Table 4, read-out: cAMP EC50

T1 sequence (P43220 24-463): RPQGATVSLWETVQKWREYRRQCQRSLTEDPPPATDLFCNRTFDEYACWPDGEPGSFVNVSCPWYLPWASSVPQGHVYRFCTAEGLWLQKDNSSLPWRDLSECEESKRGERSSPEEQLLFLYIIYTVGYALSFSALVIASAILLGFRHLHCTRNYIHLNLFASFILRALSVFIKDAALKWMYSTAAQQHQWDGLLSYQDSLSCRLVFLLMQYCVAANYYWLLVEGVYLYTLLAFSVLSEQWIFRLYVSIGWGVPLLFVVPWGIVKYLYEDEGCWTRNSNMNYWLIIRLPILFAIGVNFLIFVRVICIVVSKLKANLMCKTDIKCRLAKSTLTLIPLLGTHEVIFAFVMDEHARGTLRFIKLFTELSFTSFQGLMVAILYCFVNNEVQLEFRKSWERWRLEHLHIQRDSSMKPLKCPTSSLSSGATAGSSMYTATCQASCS

Row | SMILES | S/N (HEK293/CRE-Luc cells [1]; HEK293/CRE-Luc cells without hGLP1R, ATDCs and references (Table 27)) | EC50 (HEK293/CRE-Luc cells [1]; HEK293/CRE-Luc cells without hGLP1R, ATDCs and references (Table 27), read-out: EC50) | S/N (HEK293/CRE-Luc cells [1]; [5]) | EC50 (HEK293/CRE-Luc cells [1]; [6]) | EC50 (HEK293/CRE-Luc cells [1]; Table 28, reporter cells without GLP1R, read-out: HEK293/CRE-Luc EC50) | EC50 (HEK293/CRE-Luc cells [1]; Table 29, reporter cells without GLP1R, read-out: HEK293/CRE-Luc EC50) | EC50 (HEK293/CRE-Luc cells [2]) | HEK293/CRE-LUC S/N (HEK293/CRE-Luc cells [2]) | EC50 (human GLP1R [3]; Table 9, 5.5 h, read-out: HEK293/Myc-hGLP1R/Cre-Luc EC50) | EC50 (human GLP1R [4]; [7]) | EC50 (human GLP1R [3]; Table 5C, read-out: GLP1R LUC EC50) | EC50 (human GLP1R [3]; Table 9, […], read-out: HEK293/Myc-hGLP1R/Cre-Luc EC50) | EC50 (human GLP1R [4]; Table 5C, read-out: c-AMP EC50)
1 | CCc1cc(OCCCCn2cc(COCCOCCOCCOCCOCCOCCOCCOCCN)nn2)ccc1-c1ccc(C[C@H](NC(=O)[C@H](CC(=O)O)NC(=O)[C@H](CO)NC(=O)[C@@H](NC(=O)[C@](C)(Cc2ccccc2F)NC(=O)[C@@H](NC(=O)CNC(=O)[C@H](Cc2nn[nH]n2)NC(=O)C(C)(C)C(=O)NCCc2cnc[nH]2)[C@@H](C)O)[C@@H](C)O)C(=O)N[C@@H](CCCc2cc(C)cc(C)c2)C(N)=O)cc1 [M3190] | 1.3 | > 20 nM | 1.3 | > 200 nM | > 200 nM | > 30 nM | – | – | – | – | – | – | –
2 | CCc1cc(OCCCCN)ccc1-c1ccc(C[C@H](NC(=O)[C@H](CC(=O)O)NC(=O)[C@H](CO)NC(=O)[C@@H](NC(=O)[C@](C)(Cc2ccccc2F)NC(=O)[C@@H](NC(=O)CNC(=O)[C@H](Cc2nn[nH]n2)NC(=O)C(C)(C)C(=O)NCCc2cnc[nH]2)[C@@H](C)O)[C@@H](C)O)C(=O)N[C@@H](CCCc2cc(C)cc(C)c2)C(N)=O)cc1 [P9, (8S,14S,17S,20S,23S,26S)-8-((2H-tetrazol-5-yl)methyl)-26-(((S)-1-(((S)-1-amino-5-(3,5-dimethylphenyl)-1-oxopentan-2-yl)amino)-3-(4′-(4-aminobutoxy)-2′-ethyl-[1,1′-biphenyl]-4-yl)-1-oxopropan-2-yl)carbamoyl)-17-(2-fluorobenzyl)-14,20-bis((R)-1-hydroxyethyl)-23-(hydroxymethyl)-1-(1H-imidazol-5-yl)-5,5,17-trimethyl-4,6,9,12,15,18,21,24-octaoxo-3,7,10,13,16,19,22,25-octaazaoctacosan-28-oic acid] ({Malonyl(2,2-Me2,histaminyl)}-[Ala(1H-tetrazol-5-yl)]GT[αMePhe(2-F)]TSD[Bip(2'-Et,4'-O(CH2)4NH2)][Nva(5-(3,5-Me2Ph))]-NH2) | – | – | 1.3 | > 200 nM | – | – | > 200 nM | 1.3 | 0.00332 nM | 0.05 nM | – | – | –
3 | CCc1cc(OCCCCn2cc(COCCOCCOCCOCCOCCOCCOCCOCCN)nn2)ccc1-c1ccc(C[C@H](NC(=O)[C@H](CC(=O)O)NC(=O)[C@H](CO)NC(=O)[C@@H](NC(=O)C(C)(Cc2ccccc2F)NC(=O)[C@@H](NC(=O)CNC(=O)[C@H](Cc2nn[nH]n2)NC(=O)C(C)(C)C(=O)NCCc2cnc[nH]2)[C@@H](C)O)[C@@H](C)O)C(=O)N[C@@H](CCCc2cc(C)cc(C)c2)C(N)=O)cc1 (stereo partly drawn) [LP11, NH2-PEG8-triazole-P8] | – | – | – | – | – | – | > 200 nM | 1.3 | – | 0.318 nM | 0.016 nM | 0.016 nM | 0.318 nM
